According to paper PMC11845477, “Exploring the principles behind antibiotics with limited resistance” (Nature Communications, 2025):

Assays:
[1] = system: A. baumannii ATCC 17978 (SEN) and A. baumannii ATCC BAA-1605 (MDR); assay: microbe, parasite or virus in culture; type: cell-based, Acinetobacter baumannii; conditions: for MIC: Acinetobacter baumannii, across three biological replicates
Outline: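 Cation-adj. MHB2 (not for SCH79797); 11–16-step dilution series; 5 × 10^5 cells/mL; 37 °C, shaking, 18 h; duplicates. Growth by OD600; MIC at OD600 < 0.05. Relative MIC: evolved vs ancestor.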

[2] = system: E. coli ATCC 25922 (SEN) and E. coli NCTC13846 (MDR); assay: Adaptive laboratory evolution (ALE), relative MIC of evolved lines; type: cell-based, Escherichia coli
Outline: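 Ten parallel populations per antibiotic–ancestor pair were evolved in MHB at 37 °C, starting near 50% growth-inhibiting drug. Every 72 h they were passaged into 0.5–2.5× increasing concentrations, keeping the highest-drug well with OD600 > 0.2.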

## O=c1ccc2ncc(=O)n3c2n1C[C@H]3CN1CCC(NCc2cc3c(cn2)OCCC3)CC1 [Gepotidacin]
[1]; AB-SEN, Acinetobacter baumannii ATCC 17978, ancestor strain
  MIC of ancestor: 2 µg/mL
[1]; Acinetobacter baumannii ATCC 17978 (AB-SEN), ancestor strain, sheet fig 2a
  MIC of ancestor: 2 µg/mL
[1]; Acinetobacter baumannii ATCC 17978 (AB-SEN)
  MIC: 2 µg/mL
[1]; Acinetobacter baumannii ATCC BAA-1605 (AB-MDR)
  MIC: 32 µg/mL
[2]; EC-MDR (Escherichia coli NCTC 13846), evolved line 2
  Relative MIC: 32
[2]; EC-MDR (Escherichia coli NCTC 13846), evolved line 2 adapted to the named antibiotic
  Relative MIC (log10): 1.505
[2]; EC-MDR (Escherichia coli NCTC 13846), evolved line 4
  Relative MIC: 16
[2]; EC-MDR (Escherichia coli NCTC 13846), evolved line 4 adapted to the named antibiotic
  Relative MIC (log10): 1.204
[2]; EC-MDR (Escherichia coli NCTC 13846), evolved line 6 adapted to the named antibiotic
  Relative MIC (log10): 1.505
[2]; EC-MDR (Escherichia coli NCTC 13846), evolved line 7 adapted to the named antibiotic
  Relative MIC (log10): 1.505
[2]; EC-MDR (Escherichia coli NCTC 13846), evolved line 8
  Relative MIC: 16
[2]; EC-MDR (Escherichia coli NCTC 13846), evolved line 9
  Relative MIC: 32
[2]; EC-MDR (Escherichia coli NCTC 13846), evolved line 9 adapted to the named antibiotic
  Relative MIC (log10): 1.505
[2]; EC-MDR (Escherichia coli NCTC 13846), evolved line 10
  Relative MIC: 32
[2]; EC-MDR, Escherichia coli NCTC 13846, evolved line 1 versus ancestor
  Relative MIC: 16
[2]; EC-MDR, Escherichia coli NCTC 13846, evolved line 2 versus ancestor
  Relative MIC: 32
[2]; EC-MDR, Escherichia coli NCTC 13846, evolved line 3 versus ancestor
  Relative MIC: 8
[2]; EC-MDR, Escherichia coli NCTC 13846, evolved line 4 versus ancestor
  Relative MIC: 16
[2]; EC-MDR, Escherichia coli NCTC 13846, evolved line 6 versus ancestor
  Relative MIC: 32
[2]; EC-MDR, Escherichia coli NCTC 13846, evolved line 7 versus ancestor
  Relative MIC: 32
[2]; EC-MDR, Escherichia coli NCTC 13846, evolved line 8 versus ancestor
  Relative MIC: 16
[2]; EC-MDR, Escherichia coli NCTC 13846, evolved line 9 versus ancestor
  Relative MIC: 32
[2]; EC-MDR, Escherichia coli NCTC 13846, evolved line 10 versus ancestor
  Relative MIC: 32
[2]; EC-MDR, Escherichia coli NCTC 13846, evolved line 1
  Relative MIC: 16
[2]; EC-MDR, Escherichia coli NCTC 13846, evolved line 3
  Relative MIC: 8
[2]; EC-MDR, Escherichia coli NCTC 13846, evolved line 6
  Relative MIC: 32
[2]; EC-MDR, Escherichia coli NCTC 13846, evolved line 7
  Relative MIC: 32
[2]; EC-SEN (Escherichia coli ATCC 25922), evolved line 1 adapted to the named antibiotic
  Relative MIC (log10): 2.107
[2]; EC-SEN (Escherichia coli ATCC 25922), evolved line 2 adapted to the named antibiotic
  Relative MIC (log10): 1.806
[2]; EC-SEN (Escherichia coli ATCC 25922), evolved line 4
  Relative MIC: 128
[2]; EC-SEN (Escherichia coli ATCC 25922), evolved line 4 adapted to the named antibiotic
  Relative MIC (log10): 2.107
[2]; EC-SEN (Escherichia coli ATCC 25922), evolved line 5
  Relative MIC: 128
[2]; EC-SEN (Escherichia coli ATCC 25922), evolved line 5 adapted to the named antibiotic
  Relative MIC (log10): 2.107
[2]; EC-SEN (Escherichia coli ATCC 25922), evolved line 7
  Relative MIC: 64
[2]; EC-SEN (Escherichia coli ATCC 25922), evolved line 8
  Relative MIC: 4
[2]; EC-SEN (Escherichia coli ATCC 25922), evolved line 10
  Relative MIC: 128
[2]; EC-SEN, Escherichia coli ATCC 25922, evolved line 1 versus ancestor
  Relative MIC: 128
[2]; EC-SEN, Escherichia coli ATCC 25922, evolved line 2 versus ancestor
  Relative MIC: 64
[2]; EC-SEN, Escherichia coli ATCC 25922, evolved line 4 versus ancestor
  Relative MIC: 128
[2]; EC-SEN, Escherichia coli ATCC 25922, evolved line 5 versus ancestor
  Relative MIC: 128
[2]; EC-SEN, Escherichia coli ATCC 25922, evolved line 7 versus ancestor
  Relative MIC: 64
[2]; EC-SEN, Escherichia coli ATCC 25922, evolved line 8 versus ancestor
  Relative MIC: 4
[2]; EC-SEN, Escherichia coli ATCC 25922, evolved line 10 versus ancestor
  Relative MIC: 128
[2]; EC-SEN, Escherichia coli ATCC 25922, evolved line 1
  Relative MIC: 128
[2]; EC-SEN, Escherichia coli ATCC 25922, evolved line 2
  Relative MIC: 64
